The results in this text go back to the Kinase Knowledgebase extract (Sharma et al. 2016).

The target of this test is PIK3CA (human) (UniProt P42336). In words: Assessment of PIK3CA Kinase Activity.
PIK3CA (human), sequence (P42336 whole entry, looked up): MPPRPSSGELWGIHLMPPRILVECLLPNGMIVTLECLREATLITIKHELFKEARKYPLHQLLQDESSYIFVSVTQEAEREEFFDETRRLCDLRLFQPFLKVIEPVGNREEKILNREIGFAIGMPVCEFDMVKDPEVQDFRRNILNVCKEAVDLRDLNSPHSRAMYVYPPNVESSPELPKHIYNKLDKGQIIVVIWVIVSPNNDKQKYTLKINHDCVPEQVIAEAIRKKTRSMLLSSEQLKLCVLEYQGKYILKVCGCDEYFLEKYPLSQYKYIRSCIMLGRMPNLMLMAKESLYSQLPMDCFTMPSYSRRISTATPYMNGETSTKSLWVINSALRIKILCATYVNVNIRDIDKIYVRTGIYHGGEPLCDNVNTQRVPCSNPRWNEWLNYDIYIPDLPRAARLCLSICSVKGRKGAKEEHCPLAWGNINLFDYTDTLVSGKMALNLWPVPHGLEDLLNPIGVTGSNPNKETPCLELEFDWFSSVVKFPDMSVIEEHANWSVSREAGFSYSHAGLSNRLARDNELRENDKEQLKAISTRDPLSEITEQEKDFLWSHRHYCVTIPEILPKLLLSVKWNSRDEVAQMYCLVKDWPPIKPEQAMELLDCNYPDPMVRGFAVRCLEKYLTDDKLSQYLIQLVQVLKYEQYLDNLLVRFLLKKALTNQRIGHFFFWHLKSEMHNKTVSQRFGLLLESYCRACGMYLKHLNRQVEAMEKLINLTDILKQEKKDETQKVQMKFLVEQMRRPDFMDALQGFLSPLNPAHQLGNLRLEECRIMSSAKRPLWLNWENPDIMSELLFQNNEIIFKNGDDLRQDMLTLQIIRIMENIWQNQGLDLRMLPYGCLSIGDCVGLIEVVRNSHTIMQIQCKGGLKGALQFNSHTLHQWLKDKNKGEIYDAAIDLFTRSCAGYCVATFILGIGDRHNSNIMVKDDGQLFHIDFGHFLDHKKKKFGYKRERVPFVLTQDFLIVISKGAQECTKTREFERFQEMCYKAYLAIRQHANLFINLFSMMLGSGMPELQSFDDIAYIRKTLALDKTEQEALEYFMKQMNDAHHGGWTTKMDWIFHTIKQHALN
By Ki is commonly meant the dissociation constant of the complex between target and ligand, obtained from inhibition or displacement. `COc1ccc(Nc2ncc(CC3CCN(S(C)(=O)=O)CC3)cc2-c2nc(C)nc(N)n2)cn1` returned a Ki of 9 nM.

The molecule `COc1ccc(Nc2ncc(CN3CCC(S(C)(=O)=O)CC3)cc2-c2nc(C)nc(N)n2)cn1` registered a Ki of 22 nM. Compared with the last molecule, the Ki is about 2.4-fold higher.

As for `COc1ccc(Nc2ncc(CN3CCNCC3)cc2-c2nc(C)nc(N)n2)cn1`, the Ki amounted to 61 nM.

Turning to `COc1ccc(Nc2ncc(Br)cc2-c2nc(C)nc(N)n2)cn1`, the Ki stood at 247 nM.

Turning to `COc1cnc(Nc2ccc(OC)nc2)c(-c2nc(C)nc(N)n2)c1`, the Ki worked out at 55 nM.

With `COc1ccc(Nc2ncc(CN3CCOCC3)cc2-c2nc(C)nc(N)n2)cn1`, the Ki was found to be 104 nM.

`COc1ccc(Nc2ncc(CN3CCN(C)CC3)cc2-c2nc(C)nc(N)n2)cn1` displayed a Ki of 258 nM.

`COCCNCc1cnc(Nc2ccc(OC)nc2)c(-c2nc(C)nc(N)n2)c1` showed a Ki of 283 nM.

Turning to `COc1ccc(Nc2ncc([C@H](O)C(C)(C)C)cc2-c2nc(C)nc3[nH]cnc23)cn1`, the inhibition constant Ki worked out at 31 nM.

As to `COc1ccc(Nc2ncc(CN3CCCC3)cc2-c2nc(C)nc(N)n2)cn1`, the Ki stood at 266 nM. Compared with the last molecule, the Ki is about 8.6-fold higher.

As for `COc1ncc(Nc2ncc(CN3CCN(C(=O)N(C)C4CC4)CC3)cc2-c2nc(C)nc(N)n2)cc1F`, the inhibition constant Ki came out at 45 nM.

Take `COc1ccc(Nc2ncc(C)cc2-c2nc(C)nc(N)n2)cn1`: the Ki stood at 242 nM.

Turning to `COc1ccc(Nc2ncc(-c3cnn(C)c3)cc2-c2nc(C)nc(N)n2)cn1`, the Ki was determined as 8 nM.

`Cc1nc(N)nc(-c2cc([C@@H](C)N3CCOCC3)cnc2Nc2cnc(Cl)c(NS(C)(=O)=O)c2)n1` had a Ki of 7 nM.

For `COc1ccc(Nc2ncc(CN3CCN(S(=O)(=O)N(C)C)CC3)cc2-c2nc(C)nc(N)n2)cn1`, the Ki worked out at 17 nM.

Consider `COc1ccc(Nc2ncccc2-c2nc(C)nc(N)n2)cn1`, for which the Ki was 107 nM.

On to `Cc1nc(N)nc(-c2cccnc2Nc2cccc3[nH]ncc23)n1`, for which the Ki was 33 nM.

In turn, `COc1ccc(Nc2ncc(CN3CC[C@@H](CO)C3)cc2-c2nc(C)nc(N)n2)cn1` came in with a Ki of 278 nM.

Regarding `COc1ccc(Nc2ncc(CN3CCC(S(C)(=O)=O)C3)cc2-c2nc(C)nc(N)n2)cn1` (stereo unspecified), the Ki is 16 nM.

In turn, `COc1ccc(Nc2ncc([C@@H](O)C(C)(C)C)cc2-c2nc(C)nc3[nH]cnc23)cn1` displayed a Ki of 12 nM.

Turning to `Cc1nc(N)nc(-c2cc(Cl)cnc2Nc2cnc(Cl)c(NS(=O)(=O)N(C)C)c2)n1`, the Ki came to 2 nM.

In turn, `COCCOc1cnc(Nc2cnc(Cl)c(NS(C)(=O)=O)c2)c(-c2nc(C)nc(N)n2)c1` yielded a Ki of 5 nM.

In turn, `COc1ccc(Nc2ncccc2-c2ncnc3[nH]cnc23)cn1` displayed a Ki of 7280 nM.

`COc1ncc(Nc2ncc([C@H](C)CO)cc2-c2nc(C)nc(N)n2)cc1F` had a Ki of 7 nM. Against the preceding molecule, the Ki is about 1000-fold lower.

In turn, `COc1ccc(Nc2ncc(C3=CCOCC3)cc2-c2nc(C)nc(N)n2)cn1` displayed a Ki of 5 nM.

As to `COc1ccc(Nc2ncc(Cl)cc2-c2nc(C)nc(N)n2)cn1`, the Ki worked out at 70 nM.

Take `COc1ncc(Nc2ncc(CN3CCN(C(=O)N(C)CC(F)(F)F)CC3)cc2-c2nc(C)nc(N)n2)cc1F`: the Ki was 24 nM.

In turn, `COc1cnc(Nc2cnc(Cl)c(NS(=O)(=O)N(C)C)c2)c(-c2nc(C)nc(N)n2)c1` gave a Ki of 14 nM.

The molecule `COc1ccc(Nc2ncc(C(O)C(F)(F)F)cc2-c2nc(C)nc(N)n2)cn1` (stereo unspecified) came in with a Ki of 33 nM.

As for `COc1ccc(Nc2ncc(CN3CCCCC3)cc2-c2nc(C)nc(N)n2)cn1`, the Ki is 153 nM.

Regarding `COc1ccc(Nc2ncc(CN3CCC(O)CC3)cc2-c2nc(C)nc(N)n2)cn1`, the Ki is 199 nM.

Molecule `COc1ccc(Nc2ncc(CO)cc2-c2nc(C)nc(N)n2)cn1` returned a Ki of 63 nM. This Ki is about 3.2-fold lower than that of the molecule before.

`COc1ccc(Nc2ncc(Cc3ccccc3)cc2-c2nc(C)nc(N)n2)cn1` displayed a Ki of 65 nM.

Take `COc1cccc(Nc2cnc(Nc3ccc(OC)nc3)c(-c3nc(C)nc4[nH]cnc34)c2)c1`: the Ki is 35 nM.

With `COc1ncc(Nc2ncc([C@@H](C)CO)cc2-c2nc(C)nc(N)n2)cc1F`, the Ki stood at 9 nM. Against the preceding molecule, the Ki is about 3.9-fold lower.

In turn, `COc1ccc(Nc2ncc(CN3CCC3)cc2-c2nc(C)nc(N)n2)cn1` came in with a Ki of 160 nM.
